According to patent publication US8198434B2, “Process for preparing cefsulodin sodium” (IDEXX Laboratories, Inc., priority 2008, dated 2012):

How the values were obtained:
Assay type in all cases: physicochemical
[1] = Stability study of cefsulodin sodium stored at 55° C., purity by HPLC (Example 3); conditions: for Purity Day 0: Day 0, HPLC peak area; for Purity Day 7: Day 7, HPLC peak area; for Purity Day 14: Day 14, HPLC peak area; for Purity Day 21: Day 21, HPLC peak area; for Purity Day 28: Day 28, HPLC peak area; for Purity Day 35: Day 35, HPLC peak area; for Purity Day 42: Day 42, HPLC peak area; for Purity Day 49: Day 49, HPLC peak area; for Purity Day 56: Day 56, HPLC peak area; for Purity Day 63: Day 63, HPLC peak area; for Purity Day 70: Day 70, HPLC peak area
Description: (§1) Three lots of cefsulodin sodium, prepared according to the process described in Example 2, were stored at 55° C. and 40° C. and the purity of the sample determined as a function of time using HPLC. […] The stability of a lyophilized sample of cefsulodin sodium containing about 5-6% water at 55° C. was also determined. The lyophilized sample was prepared by suspending cefsulodin in water, adding sodium hydroxide until the cefsulodin dissolved, and then removing the water by lyophilization. The area of the HPLC peak corresponding to cefsulodin was used to determine purity. The following assay was used to determine purity:
(§2) 1. 25 mM Sodium Acetate pH 4.5 • a. Measure out 2 L of HPLC grade water. • b. Add 4.1 g of sodium acetate. • c. Mix until dissolved. • d. Adjust the pH to 4.5 with HPLC grade acetic acid. • e. Filter the solution through a nylon filter.
(§3) 2. 3% acetonitrile-97% 25 mM sodium acetate pH 4.5 (Mobile Phase A) • a. Measure out 1940 mL of 25 mM sodium acetate into a 2 L flask. • b. Add 60 mL of HPLC grade acetonitrile. • c. Mix well.
(§4) 3. HPLC Grade acetonitrile (Mobile Phase B) • a. Transfer acetonitrile into a 1 L flask. Sample Preparation:
(§5) 1. Weigh out about 10 mg of cefsulodin into a 15 mL conical tube.
(§6) 2. Add […] of mobile phase A and mix to dissolve (1 mg/mL cefsulodin Stock solution).
(§7) 3. Transfer 1 mL of cefsulodin stock solution into another 15 mL conical tube.
(§8) 4. Add 7 mL of mobile phase A to make a 0.125 mg/mL solution of cefsulodin.
(§9) 5. Filter this solution through a nylon syringe filter into an HPLC vial.
(§10) 6. Analyze the sample by HPLC using the conditions described below.
(§11) Solvents: Pump A-Mobile Phase A • Pump B-Mobile Phase B
(§12) Detection wavelength: 254 nm
(§13) Initial Conditions: 100% Pump A-0% Pump B
(§14) The above gradient can be summarized as follows: maintain at 0% B for 0.3 min; at 0.3 min run a gradient to 70% B for 2.5 min; maintain at 70% B for 1 min; at 3.5 min go back to 0% B for 0.5 min; run at 0% B until the 8.00 min mark.

[2] = Stability study of cefsulodin sodium stored at 40° C., purity by HPLC (Example 3); conditions: for Purity Day 0: Day 0, HPLC peak area; for Purity Day 7: Day 7, HPLC peak area; for Purity Day 14: Day 14, HPLC peak area; for Purity Day 21: Day 21, HPLC peak area; for Purity Day 28: Day 28, HPLC peak area; for Purity Day 35: Day 35, HPLC peak area; for Purity Day 42: Day 42, HPLC peak area; for Purity Day 49: Day 49, HPLC peak area; for Purity Day 56: Day 56, HPLC peak area; for Purity Day 63: Day 63, HPLC peak area; for Purity Day 70: Day 70, HPLC peak area
Description: as §1, §2, §3, §4, §5, §6, §7, §8, §9, §10, §11, §12, §13, §14

Solubility in water = test: Solubility in water
[3] = Stability of needle-shaped and spherical-shaped cefsulodin sodium crystals at 55° C. (Example 5); conditions: for Purity Day 1 / Purity Day 7 / Purity Day 14 / Purity Day 21: crystal form stored at 55° C.
Description: Needle-shaped cefsulodin sodium crystals were obtain according to a process similar to the process described in Example 2.
Spherical-shaped cefsulodin sodium crystals were obtain according to the process described in Example 3.
The stability of each crystal form was measured at 55° C.

[4] = Storage at about room temperature, purity by HPLC

Structure (SMILES)	Purity Day 0 [1] [%]	Purity Day 7 [1] [%]	Purity Day 14 [1] [%]	Purity Day 21 [1] [%]	Purity Day 28 [1] [%]	Purity Day 42 [1] [%]	Purity Day 49 [1] [%]	Purity Day 56 [1] [%]	Purity Day 63 [1] [%]	Purity Day 70 [1] [%]	Purity Day 0 [2] [%]	Purity Day 7 [2] [%]	Purity Day 14 [2] [%]	Purity Day 21 [2] [%]	Purity Day 28 [2] [%]	Purity Day 42 [2] [%]	Purity Day 49 [2] [%]	Purity Day 56 [2] [%]	Purity Day 63 [2] [%]	Purity Day 70 [2] [%]	further results
NC(=O)c1cc[n+](CC2=C(C(=O)[O-])N3C(=O)[C@@H](NC(=O)[C@@H](c4ccccc4)S(=O)(=O)[O-])[C@H]3SC2)cc1.[Na+] [Lot 1, cefsulodin sodium]	99.2	97.2	96.0	94.9	94.3	91.8	90.9	90.5	89.8	89.1	99.2	98.2	98.2	97.5	97.2	96.3	96.4	96.0	96.0	95.3	Purity Day 35 [1]: 93.4%; Purity Day 35 [2]: 96.4%
NC(=O)c1cc[n+](CC2=C(C(=O)[O-])N3C(=O)[C@@H](NC(=O)[C@@H](c4ccccc4)S(=O)(=O)[O-])[C@H]3SC2)cc1.[Na+] [monosodium cefsulodin, monosodium salt of cefsulodin]																					solubility in water (Solubility in water): more soluble in water that cefsulodin
NC(=O)c1cc[n+](CC2=C(C(=O)[O-])N3C(=O)[C@@H](NC(=O)[C@@H](c4ccccc4)S(=O)(=O)[O-])[C@H]3SC2)cc1.[Na+] [Spherical-shaped, cefsulodin sodium]																					Purity Day 1 [3]: 98.5; Purity Day 7 [3]: 86.3; Purity Day 14 [3]: 83.7; Purity Day 21 [3]: 83.1
NC(=O)c1cc[n+](CC2=C(C(=O)O)N3C(=O)[C@@H](NC(=O)[C@@H](c4ccccc4)S(=O)(=O)[O-])[C@H]3SC2)cc1 [cefsulodin sodium]																					purity after storage for 29 days ([4]; about room temperature, 29 days): 80.4%; purity after storage for 56 days ([4]; about room temperature, 56 days): 76.7%; purity determined by HPLC before storage ([4]; initial, before storage at about room temperature): about 95%
NC(=O)c1cc[n+](CC2=C(C(=O)[O-])N3C(=O)[C@@H](NC(=O)[C@@H](c4ccccc4)S(=O)(=O)[O-])[C@H]3SC2)cc1.[Na+] [Lot 2, cefsulodin sodium]	99.2	97.1	96.1	94.7	94.4	91.8	91.0	90.1	89.8	89.2	99.2	98.5	98.3	97.7	97.1	96.5	96.4	96.4	96.1	95.6	Purity Day 35 [1]: 92.9%; Purity Day 35 [2]: 96.8%
NC(=O)c1cc[n+](CC2=C(C(=O)[O-])N3C(=O)[C@@H](NC(=O)[C@@H](c4ccccc4)S(=O)(=O)[O-])[C@H]3SC2)cc1.[Na+] [Needle-shaped, cefsulodin sodium]																					stability of crystal forms (comparison) ([3]; 55° C.): more stable than the spherical-shaped crystals; Purity Day 1 [3]: 99.2; Purity Day 7 [3]: 98.1; Purity Day 14 [3]: 96.8; Purity Day 21 [3]: 95.7
NC(=O)c1cc[n+](CC2=C(C(=O)O)N3C(=O)[C@@H](NC(=O)[C@@H](c4ccccc4)S(=O)(=O)[O-])[C@H]3SC2)cc1 [cefsulodin]																					solubility in water (Solubility in water): insoluble in water
NC(=O)c1cc[n+](CC2=C(C(=O)[O-])N3C(=O)[C@@H](NC(=O)[C@@H](c4ccccc4)S(=O)(=O)[O-])[C@H]3SC2)cc1.[Na+] [Lot 3, cefsulodin sodium]	99.3	96.9	96.1	94.8	93.9	93.4	92.6	92.7	91.3	91.3	99.3	98.4	98.5	98.1	97.9	96.2	97.2	97.3	97.0	97.0	
NC(=O)c1cc[n+](CC2=C(C(=O)O)N3C(=O)[C@@H](NC(=O)[C@@H](c4ccccc4)S(=O)(=O)[O-])[C@H]3SC2)cc1 [Lyophilized, cefsulodin sodium]	98.8				80.4																
